In general, IC50 refers to the concentration that gives 50% inhibition. One may read the IC90 as the concentration needed for an effect of 90%. By fraction unbound is commonly meant the share of the substance not bound to proteins or other matrix.

The results in this text go back to patent US10106539B2, “Spiro-indolines for the treatment and prophylaxis of respiratory syncytial virus infection (RSV)” (REVIRAL LIMITED, priority 2014, dated 2018).

One data set relates to RSV-A5 (6440). As to the kind of experiment: RSV plaque reduction assay, RSV-A5 (6440), Vero cells. The settings on record: human respiratory syncytial virus, n = 1. It is filed as cell-based. The protocol:
(§1) Plaque Reduction Assay: […] After an overnight incubation at 37° C. in a humidified 5% CO2 atmosphere, the monolayer of cells should be approximately 90% confluent. Antiviral compounds were titrated in pre-warmed Serum Free (SF) Optimem in a U-bottom 96 well plate. […] Media was then removed from cells and replaced with PBS (100 μl/well). RSV stock was thawed and diluted in SF Optimem media to 4000 PFU/mLl. An equal volume of virus was added to compounds on the titration plate. PBS was removed from cells which were then inoculated with the virus/compound solution (50 μL/well). Cells were incubated for 2 h in a 37° C.+5% CO2 humidified incubator to allow infection. […] Immunostaining Procedure: Media was removed from cells and the monolayer washed with PBS. Cells were fixed with ice cold 80% Acetone in PBS (100 μl/well) for 20 mins at −20° C. […] Blocking solution was removed and plates washed once with PBS-T. Primary antibody in blocking solution was added to plates (50 μl/well) and incubated for 1 h at 37° C. Plates were then washed 3 times with PBS-T. Secondary antibody in blocking solution was added to plates (50 μL/well) and incubated for 1 h at 37° C. in the dark. […] Data Analysis: Images obtained were saved and plaque numbers counted with the aid of computer imaging software. […]
Background: Plaques are areas of infected cells; plaque reduction assays count them against a control.

A short description of data set [1]: Plasma protein binding (equilibrium dialysis), human. Format: in vitro ADME. The settings on record: plasma (100%), pH 7.4, read-out: PPB fraction unbound, human. On the procedure: Protein Binding Determination: Experimental Procedure
Solutions of test compound (5 μM, 0.5% final DMSO concentration) are prepared in buffer (pH 7.4) and 100% species-specific plasma. The experiment is performed using equilibrium dialysis with the two compartments separated by a semi-permeable membrane. The buffer solution is added to one side of the membrane and the plasma solution to the other side. After equilibration, samples are taken from both sides of the membrane. Standards are prepared in plasma and buffer and are incubated at 37° C.
Test compound incubations are performed in duplicate. A control compound is included in each experiment.
The solutions for each batch of compounds are combined into two groups (protein-free and protein-containing), then cassette analysed by LC-MS/MS using two sets of calibration standards for protein-free (7 points) and protein-containing solutions (6 points).

The test system of another data set is RSV-BA (Brasil). As to the kind of experiment: RSV plaque reduction assay, RSV-BA (Brasil), Vero cells. It is filed as cell-based. As to conditions: human respiratory syncytial virus, n = 1. On the procedure: as §1
Another data set concerns RSV-A5 (6470). The experiment in a line: RSV plaque reduction assay, RSV-A5 (6470), Vero cells. Format: cell-based. As to conditions: human respiratory syncytial virus, n = 1. The protocol:
as §1

For a further data set, the system named is RSV A2 (PRNT1). The experiment in a line: RSV plaque reduction assay, A2 (PRNT1), Vero cells. It is filed as cell-based, respiratory syncytial virus. The settings on record: human respiratory syncytial virus, Vero; n = 4. The protocol:
Plaque Reduction Assay: […] After an overnight incubation at 37° C. in a humidified 5% CO2 atmosphere, the monolayer of cells should be approximately 90% confluent. Antiviral compounds were titrated in pre-warmed Serum Free (SF) Optimem in a U-bottom 96 well plate. […] Media was then removed from cells and replaced with PBS (100 μl/well). RSV stock was thawed and diluted in SF Optimem media to 4000 PFU/mLl. An equal volume of virus was added to compounds on the titration plate. PBS was removed from cells which were then inoculated with the virus/compound solution (50 μL/well). Cells were incubated for 2 h in a 37° C.+5% CO2 humidified incubator to allow infection. […] Immunostaining Procedure: Media was removed from cells and the monolayer washed with PBS. Cells were fixed with ice cold 80% Acetone in PBS (100 μl/well) for 20 mins at −20° C. […] Blocking solution was removed and plates washed once with PBS-T. Primary antibody in blocking solution was added to plates (50 μl/well) and incubated for 1 h at 37° C. Plates were then washed 3 times with PBS-T. Secondary antibody in blocking solution was added to plates (50 μL/well) and incubated for 1 h at 37° C. in the dark. […] Plates were scanned on the Odyssey Imager (Li-Cor Biosciences) at a resolution of […], medium quality and level 5 intensity in the […]. Data Analysis: Images obtained were saved and plaque numbers counted with the aid of computer imaging software. EC50 values for compounds were derived from dose response curves [three variable log (inhibitor) vs response] obtained using Graphpad Prism software.

The test system of another data set is RSV. As to the kind of experiment: RSV plaque reduction assay (Comparative Example 1, strain not stated). It is filed as cell-based. As to conditions: human respiratory syncytial virus; read-out: RSV Plaque Reduction assay IC50 (Table 4). The protocol:
Plaque Reduction Assay: […] After an overnight incubation at 37° C. in a humidified 5% CO2 atmosphere, the monolayer of cells should be approximately 90% confluent. Antiviral compounds were titrated in pre-warmed Serum Free (SF) Optimem in a U-bottom 96 well plate. […] Media was then removed from cells and replaced with PBS (100 μl/well). RSV stock was thawed and diluted in SF Optimem media to 4000 PFU/mLl. An equal volume of virus was added to compounds on the titration plate. PBS was removed from cells which were then inoculated with the virus/compound solution (50 μL/well). Cells were incubated for 2 h in a 37° C.+5% CO2 humidified incubator to allow infection. […] Cells were subsequently incubated for 48 h at 37° C.+5% CO2 in a humidified incubator. Immunostaining Procedure: Media was removed from cells and the monolayer washed with PBS. Cells were fixed with ice cold 80% Acetone in PBS (100 μl/well) for 20 mins at −20° C. […] Blocking solution was removed and plates washed once with PBS-T. Primary antibody in blocking solution was added to plates (50 μl/well) and incubated for 1 h at 37° C. Plates were then washed 3 times with PBS-T. Secondary antibody in blocking solution was added to plates (50 μL/well) and incubated for 1 h at 37° C. in the dark. […] Data Analysis: Images obtained were saved and plaque numbers counted with the aid of computer imaging software. […]

Turning to `NCc1ccc2c(c1)nc(CN1C(=O)C3(CC3)c3ccc(F)cc31)n2CCCC(F)(F)F` [Example 1, 1′-{[5-(Aminomethyl)-1-(4,4,4-trifluorobutyl)-1H-1,3-benzodiazol-2-yl]methyl}-6′-fluoro-1′,2′-dihydrospiro[cyclopropane-1,3′-indole]-2′-one], the IC50 stood at 5.7 nM in the data set with RSV-A5 (6440), 2.1 nM in the data set on RSV-BA (Brasil), 10.3 nM in the data set with RSV-A5 (6470) and 2.1 nM with RSV A2 (PRNT1). The IC90 was 106 nM in the data set on RSV-A5 (6440), 34.5 nM with RSV-BA (Brasil), 81 nM in the data set with RSV-A5 (6470) and 13.5 nM with RSV A2 (PRNT1). The fraction unbound at 5 μM in data set [1] came out at 0.67.

In the case of `CC(C)CCn1c(CN2C(=O)C3(CC3)c3ccccc32)nc2cc(CN)ccc21` [RV039, 1′-((5-(aminomethyl)-1-isopentyl-1H-benzo[d]imidazol-2-yl)methyl)spiro[cyclopropane-1,3′-indolin]-2′-one, reference compound], the IC50 in the data set with RSV was 31 nM.
